# Assay results published in patent publication US6071710A, “Antikinin compounds and uses thereof” (MUSC Foundation for Research Development, priority 1997, dated 2000).
# “Also recorded” adds a separate entry of the source. Where no end group is shown, it is not given here.
# How the values were obtained:
# [1] = biological target: T1, kinin B2 receptors (Rattus norvegicus, UniProt P25023); assay: [3H]bradykinin binding assay in VSMC; conditions: rat aortic smooth muscle cells
# T1 construct: endogenous in cells; host or cells: primary rat aortic vascular smooth muscle cells (male Sprague-Dawley), passage 2-4
# T1 sequence (P25023 1-396): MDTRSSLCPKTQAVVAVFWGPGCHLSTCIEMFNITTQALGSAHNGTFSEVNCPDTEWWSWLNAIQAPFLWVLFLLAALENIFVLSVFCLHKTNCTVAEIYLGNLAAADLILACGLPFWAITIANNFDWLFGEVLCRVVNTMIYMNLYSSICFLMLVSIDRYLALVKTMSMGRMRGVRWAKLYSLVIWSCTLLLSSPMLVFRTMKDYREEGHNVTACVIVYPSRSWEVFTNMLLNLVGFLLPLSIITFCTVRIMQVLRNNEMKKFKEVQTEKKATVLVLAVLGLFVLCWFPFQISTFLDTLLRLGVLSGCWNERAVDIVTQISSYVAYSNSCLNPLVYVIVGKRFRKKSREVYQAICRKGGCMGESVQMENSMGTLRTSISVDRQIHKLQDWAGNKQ
# Procedure: VSMC grown in 6-well plates were washed with and allowed to equilibrate with 1 ml of binding buffer (25 mM TES, 1 mM phenanthroline, 15 μM captopril, 0.1% BSA, pH 7.0). Saturation binding experiments were performed by incubating cells with [^-3 H] bradykinin (60,000 cpm/well) and varying the concentration of unlabeled bradykinin (5×10^-11 -1×10^-6 M) in binding buffer for 2 h at 4° C. Cells were washed 3 times with 2 ml of ice-cold binding buffer and solubilized for 10 min in 1% SDS, 0.1 M NaOH, 0.1 M Na2 CO3 solution and counted for radioactivity. Data were analyzed using the LIGAND program to determine the affinity constants and the receptor number.
# [2] = published work (11); cited from earlier work
# [3] = system: endotoxin (LPS)-treated anesthetized rats; assay: Endotoxin (LPS) shock in anesthetized rats; type: in vivo, rat; conditions: 1 μg/kg IV followed by 143 ng/kg/hr, one hour prior to LPS (12 mg/kg IV); vs vehicle/LPS
# Procedure: Male Sprague-Dawley rats (220-480 g) were anesthetized with inactin (120 mg/kg, IP). The trachea was cannulated and the animal was allowed to breath 100% O2. Polyvinyl cannulas (Norton Plastics, Akron, Ohio) were inserted into the jugular vein and the femoral artery for the purposes of infusion of saline and agents and for monitoring of blood pressure, respectively, as described for FIGS. 2 and 3. Heart rate was monitored by tachograph and body temperature was maintained at 37° C. After a 2 hour period of equilibration with saline infusion (0.25 ml/hr), peptides (1 μg/kg followed by 143 ng/kg/hr) or saline were administered, followed one hour later by LPS (12 mg/kg). Time of death was taken as time after administration of LPS when there was no longer a detectable ECG. Values shown are the mean ± sem from the indicated number of studies and were compared using either t-test (FIG. 12A) or ANOVA with Fisher's post-hoc t-test (FIG. 12B).
# [4] = cited from earlier work
# [5] = system: spontaneously hypertensive rats; assay: Mean systemic arterial blood pressure after brain injection of BK fragments; type: in vivo, rat; conditions: hypertensive anesthetized rats, preliminary for BK1-7, BK2-7
# Procedure: Experiments were performed on male spontaneously hypertensive rats weighing 250-350 g. Anesthesia and surgical procedures are described (15-17). Following the surgical procedures, animals were allowed to stabilize for 30 minutes. Injections were then made unilaterally into the rostral ventral lateral medulla oblongata. In any given experiment, not more than four doses of the BK fragments were given. Successive injections were alternated between sides after an intervening period of 20 minutes. Mean arterial pressure was measured from a femoral arterial line with a transducer (Statham Laboratories, Inc. Hato Rey, Puerto Rico) and recorded using a polygraph (Grass Instrument Co., Quincy, Mass.). Values shown are the mean changes ± sem.
molecule,measurement,setting,value
NC(N)=NCCC[C@@H](N)C(=O)N[C@@H](CCCN=C(N)N)C(=O)N1CCC[C@H]1C(=O)N1C[C@H](O)C[C@H]1C(=O)NCC(=O)N[C@@H](Cc1cccs1)C(=O)N[C@@H](CO)C(=O)N1Cc2ccccc2C[C@@H]1C(=O)N1[C@H](C(=O)N[C@@H](CCCN=C(N)N)C(=O)O)C[C@@H]2CCCC[C@@H]21 [HOE140],displacement of specific binding of bradykinin to kinin B2 receptors,[1],specifically displaced
"RPPGF [RPPGF, Arg-Pro-Pro-Gly-Phe]",stability in human plasma,[2],highly stable in human plasma
RPPGFSPFR [bradykinin],survival time,[3],did not prolong life; also recorded: does not provide protection
same,plasma half-life,[4],~ 15 secs.
"des-arg9-bradykinin (RPPGFSPF; Bradykinin; UniProt P01042 381-388, looked up, fragment)",displacement of specific binding of bradykinin to kinin B2 receptors,[1],not displaced
"BK2-7: bradykinin fragment PPGFSP (Bradykinin; UniProt P01042 382-387, looked up, fragment)",systemic mean arterial pressure (MAP) response,[5],affect systemic blood pressure
